Earlier results in patent US20040048853A1, “Compounds, compositions, and methods” (priority 2002, published 2004).

System: A549 cells

GI50 [nM] | SMILES
1000 | O=c1[nH]cc(F)c(=O)[nH]1 [5-fluorouracil]
63 | COc1cccc2c1C(=O)c1c(O)c3c(c(O)c1C2=O)C[C@@](O)(C(=O)CO)C[C@@H]3O[C@H]1C[C@H](N)[C@H](O)[C@H](C)O1 [doxorubicin]
500000 | NC(=O)NO [hydroxyurea]
4 | CC(=O)O[C@H]1C(=O)[C@@]2(C)[C@H]([C@H](OC(=O)c3ccccc3)[C@]3(O)C[C@H](OC(=O)[C@H](O)[C@@H](NC(=O)c4ccccc4)c4ccccc4)C(C)=C1C3(C)C)[C@]1(OC(C)=O)CO[C@@H]1C[C@@H]2O [paclitaxel]
